Laboratory results published in US9902761B2, “Polypeptides, nucleic acids and uses thereof” (AGENCY FOR SCIENCE, TECHNOLOGY AND RESEARCH, priority 2013, dated 2018).

How the values were obtained:
[1] = system: VSV-G pseudotyped virus; type: cell-based, HIV (VSV)
[2] = system: HIV-1 NLAD8; assay: HIV inhibition assay in P4C5 HeLa cells (β-gal activity); type: cell-based; conditions: CCR5-tropic virus
[3] = system: HIV-1 NL43; assay: as above; type: cell-based; conditions: CXCR4-tropic strain

Cc1ccnc2c1NC(=O)c1cccnc1N2C1CC1 [Nevirapine, reference compound]
blocks all viruses tested: inhibition of infection with VSV-G pseudotyped virus [1] | inhibition of infection with HIV-1 NLAD8 [2] | inhibition of infection with HIV-1 NL43 [3]
